From patent publication EP0533344B1, “Methanoanthracenes as dopamine antagonists” (ZENECA LIMITED, priority 1991, dated 1993)
Where two headings read alike, the source gives them in different places.

Experiments:
[1] = target: T1, dopamine (DA) D-2 receptor subtype (Rattus norvegicus, UniProt P61169); assay: Test A: dopamine D-2 receptor binding assay, displacement of [3H]-spiperone
T1 construct: Specifically, rat striatal membranes were used; from tissue; host or cells: rat striatum (membranes)
T1 sequence (P61169 whole entry): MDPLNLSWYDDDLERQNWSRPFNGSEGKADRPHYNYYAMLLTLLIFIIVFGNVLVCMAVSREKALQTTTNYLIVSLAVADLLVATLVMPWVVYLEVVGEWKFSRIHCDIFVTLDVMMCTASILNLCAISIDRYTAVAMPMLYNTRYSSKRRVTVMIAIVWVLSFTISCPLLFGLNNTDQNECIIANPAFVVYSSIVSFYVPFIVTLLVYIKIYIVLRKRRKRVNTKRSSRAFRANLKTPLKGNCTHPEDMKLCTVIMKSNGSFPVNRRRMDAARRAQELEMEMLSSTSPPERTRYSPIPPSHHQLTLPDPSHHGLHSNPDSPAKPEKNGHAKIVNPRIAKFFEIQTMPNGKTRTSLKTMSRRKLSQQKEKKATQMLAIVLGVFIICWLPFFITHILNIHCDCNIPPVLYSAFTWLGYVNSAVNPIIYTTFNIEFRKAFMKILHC
From the text: (§1) The compounds of Formula I are antagonists of dopamine D-2 receptors, and as such are predicted to be useful as antipsychotic drugs. D-2 antagonism can be shown by standard tests such as antagonism of [^3H]-spiperone binding (Test A), and/or antagonism of apomorphine-induced climbing and apomorphine- induced disruption of swimming (Test B).
The receptor binding assay used to measure affinities of various compounds for the dopamine (DA) D-2 receptor subtype was that described by Saller and Salama in J Pharmacol Exp Ther 236, page 714, 1986.
Specifically, rat striatal membranes were used. Tissue membranes were prepared and washed once in 50 volumes of the appropriate Tris HCl buffer. For the D-2 receptor binding assay, striatal membranes were suspended to a final concentration of 8 mg/ml in 50 mM Tris HCl with 40 nM ketanserin, pH 7.7. Nonspecific binding to D-2 receptors was measured in the presence of 1.0 µM (+)-butaclamol. IC50s (drug concentration which produced a 50% displacement) for the displacement of 0.5 nM [^3H] spiperone were determined using at least five concentrations of each drug in triplicate. One-half milliliter of membrane suspension was incubated with the compound of interest or vehicle or nonspecific drug, ligand and appropriate Tris HCl buffer. […] The amount of drug bound to the membranes was assessed using liquid scintillation counting techniques. […]

[2] = system: Female Swiss-Webster mice; assay: Test B: antagonism of apomorphine-induced climbing and apomorphine-induced disruption of swimming; type: in vivo; conditions: Mus musculus, po, read-out: minimum effective dose
Procedure: as §1
Female Swiss-Webster mice weighing approximately 20 g were deprived of food for approximately 24 h and then dosed orally with various doses of either the vehicle or test agent over a range of doses (N = 20 mice per treatment group). Thirty minutes later they were dosed with apomorphine HCl at 1.25 mg/kg, sc, and placed into climbing cages. The climbing cages were 9 cm wide, 15 cm deep and 30 cm high. One wall had 27 horizontal rungs spaced 1 cm apart. Thirteen minutes after apomorphine each mouse was observed continuously for 1 min and the highest and lowest rung reached by its front paws was recorded. […] (The highest and lowest scores were 27 and 0, respectively.) Immediately after the 1-min climbing observation period each mouse was placed into a circular swimming tank for 2 min and the number of swims was counted. […] A "swim" was scored each time a mouse swam from one mark to the other. The mice were observed through overhead mirrors and the number of 180 degree swims was recorded for each mouse. […]

Row | IC50 ([1]; displacement of 0.5 nM [3H] spiperone, rat striatal membranes, 37°C for 15 min, typical result, read-out: IC50) [nM] | SMILES | IC50 [1] [nM] | minimal effective dose [2] [mg/kg] | minimal effective dose ([2]; dosed orally 30 min before apomorphine HCl 1.25 mg/kg sc, decreased climbing score with increased swimming score, typical result) [mg/kg]
1 |  | OC1(c2cccnc2)CCN(CC23CC(c4ccccc42)c2ccccc23)CC1 [Example 5, 1-(9,10-Dihydro-9,10-methanoanthracen-9-ylmethyl)-4-(3-pyridyl)piperidin-4-ol] | 12 | 20 | 
2 | 3 | CC(C)(C)C1(O)CCN(CC23CC(c4ccccc42)c2ccc(Cl)cc23)CC1 (stereo not shown) [Example 49, 1-(2-Chloro-9,10-dihydro-9,10-methanoanthracen-9-ylmethyl)-4-(1,1-dimethylethyl)piperidin-4-ol] |  |  | 1.3
